Measurements as given in publication PMC4756062 (Clinical Pharmacokinetics, 2015).
“Also recorded” adds a separate entry of the source. Like-named read-outs stand apart in the source and are kept apart here.

What was measured:
[1] = format: in vivo, human (breast cancer patients); settings: for AUC(0-t): AUC0–24, plasma; for C trough: concentration before dosing; for C trough / C trough, ratio of weak to potent CYP2D6-inhibiting SSRI: 10 patients
[2] = Adverse effects recorded during the antidepressant switch study; format: in vivo, human (breast cancer patients)
[3] = after versus before the switch, median (range)
[4] = female, human, plasma, tamoxifen + potent CYP2D6-inhibiting SSRI (paroxetine or fluoxetine), median (range), dose corrected to 20 mg tamoxifen
[5] = female, human, plasma, C max, plasma, tamoxifen + potent CYP2D6-inhibiting SSRI (paroxetine or fluoxetine), median (range), dose corrected to 20 mg tamoxifen
[6] = plasma, tamoxifen + potent CYP2D6-inhibiting SSRI (paroxetine or fluoxetine), median (range)
[7] = plasma, after versus before the switch, median (range)
[8] = tamoxifen + potent CYP2D6-inhibiting SSRI (paroxetine or fluoxetine), median (range)
[9] = plasma, tamoxifen + potent CYP2D6-inhibiting SSRI (paroxetine or fluoxetine), median (range), dose corrected to 20 mg tamoxifen
[10] = plasma, switch from paroxetine/fluoxetine to escitalopram

AUC(0-t) [1, 4] [µM·h] | Cmax [1, 5] [nM] | C trough [1, 6] | C max, ratio of weak to potent CYP2D6-inhibiting SSRI [1, 7] | C trough, ratio of weak to potent CYP2D6-inhibiting SSRI [1, 7] | AUC0–24, ratio of weak to potent CYP2D6-inhibiting SSRI [1, 7] | Structure (SMILES) | other results
0.0992 | 5.46 | 5.20 (3.48–10.6) nM | 2.96 (1.50–7.44) | 2.80 (1.02–6.33) | – | CC/C(=C(\c1ccc(O)cc1)c1ccc(OCCNC)cc1)c1ccccc1 [Endoxifen, 4-hydroxy-N-desmethyl-tamoxifen] | AUC0–24 ratio endoxifen to ND-Tam, ratio of weak to potent CYP2D6-inhibiting SSRI [1, 3]: 3.33 (1.56–5.37); Fold higher endoxifen exposure after the switch, single patient ([1]; one person using 40 mg tamoxifen (dose corrected to 20 mg)): 2.9 fold; C max, ratio of weak to potent CYP2D6-inhibiting SSRI ([1]; plasma, after versus before the switch, median (range), listed as endoxifen): ~ 3; AUC0–24 ratio endoxifen to ND-Tam [1, 8]: 0.0113 (0.0065–0.014); AUC0–24 ratio endoxifen to tamoxifen [1, 8]: 0.0213 (0.0057–0.029)
– | – | 446 (306–807) nM | 1.09 (0.77–1.75) | 0.97 (0.76–1.37) | 1.09 (0.75–1.27) | CC/C(=C(\c1ccccc1)c1ccc(OCCNC)cc1)c1ccccc1 [ND-Tam, N-desmethyltamoxifen] | AUC0–24 [1, 9]: 10,149 (7744–20,107) nM·h; Cmax [1, 9]: 528 nM
0.0638 | 3.46 | 2.47 (1.29–4.65) nM | 1.42 (0.81–2.05) | 1.40 (0.82–2.06) | 1.34 (0.88–1.87) | CC/C(=C(\c1ccc(O)cc1)c1ccc(OCCN(C)C)cc1)c1ccccc1 [4-OH-Tam, 4-hydroxytamoxifen] | AUC0–24 ratio 4-OH-Tam to tamoxifen, ratio of weak to potent CYP2D6-inhibiting SSRI [1, 3]: 1.51 (1.08–1.67); AUC0–24 ratio 4-OH-Tam to tamoxifen, ratio of weak to potent CYP2D6-inhibiting SSRI ([1]; after versus before the switch, median (range), listed as 4-hydroxytamoxifen): ~ 1.5; Increase in AUC0–24 after the switch [1, 10]: 34%; Increase in Cmax after the switch [1, 10]: 42%; Increase in Ctrough after the switch [1, 10]: 40%; AUC0–24 ratio 4-OH-Tam to tamoxifen [1, 8]: 0.0109 (0.0053–0.014)
– | – | – | – | – | – | CN(C)CCC[C@@]1(c2ccc(F)cc2)OCc2cc(C#N)ccc21 [escitalopram, S-citalopram] | Hot flashes ([2]; tamoxifen-treated women, during co-administration): hot flashes were reported particularly during escitalopram co-administration; Safety of switching from paroxetine/fluoxetine to escitalopram (antidepressant-related adverse events, psychiatric relapse) ([2]; tamoxifen-treated women, escitalopram 10–20 mg/day, cross-tapering): safe and feasible; also recorded: No antidepressant-related adverse events or psychiatric relapse were noted; Discontinuation of treatment ([2]; ten tamoxifen-treated women): None of the ten women had to discontinue
6.42 | 369 | 278 (128–557) nM | – | – | – | CC/C(=C(\c1ccccc1)c1ccc(OCCN(C)C)cc1)c1ccccc1 [Tamoxifen, reference compound] | –
